Results published in US20260365991A1, “COMPOUNDS FOR STABILIZING PEPTIDES IN BIOLOGICAL SAMPLES” (Roche Diagnostics Operations, Inc., priority 2023, published 2026).

How the values were obtained:
[1] = tested on: gastrin-17; test: Gastrin-17 stabilization by sulfone compounds in horse serum (Example 3); assay type: biochemical, human gastrin-17 (GAST_HUMAN) in horse serum; details: for ability to stabilize gastrin-17 in serum / stabilizing effect on gastrin-17 compared with DMSO: 5% [v/v], horse serum, room temperature, 5 h and 24 h
Procedure: Gastrin-17 (GAST_HUMAN(77-92)[Pyr-77]amid) was solved in horse serum with a concentration of 2.0 mg/ml and diluted to 0.22 mg/mL.
This solution was spiked respectively to reach a concentration of gastrin-17 of 0.1 mg/ml in (a) horse serum with added 5% [v/v]H2O; (b) horse serum with added 5% [v/v] DMSO (CAS: 67-68-5); (c) horse serum added 5% [v/v] Sulfolane (CAS: 126-33-0); d) horse serum with added 5% [v/v]trimethylene sulfone (CAS: 5687-92-3); e) horse serum with added 5% [v/v]1,1-dioxoisothiazolidine (CAS: 5908-62-3); f) horse serum with added 5% [v/v]1,4-butanesultone (CAS: 1633-83-6); g) horse serum with added 5% [v/v]tetrahydro-2H-thiopyran-4-ol 1,1-dioxide (CAS: 194152-05-1); h) horse serum with added 5% [v/v]2-methyltetrahydrothiophene 1,1-dioxide (CAS: 1003-46-9); i) horse serum with added 5% [v/v]ethylmethylsulfone (CAS: 594-43-4). The samples were then stored/incubated at room temperature. Samples were taken after 0 h, 5 h and 24 h. The further experiment was performed as described in Example 1.

[2] = cited from earlier work; for stability against oxidation compared with DMSO: Wasmus S and Vielstich W, Electrochimica Acta 1993
[3] = tested on: gastrin-17; test: Gastrin-17 stability in horse serum with 5% additive (Example 1, HPLC-MS); assay type: biochemical, human gastrin-17 (GAST_HUMAN) in horse serum; details: for protection ability on gastrin-17: room temperature, 0 h, 5 h, 23 h
Procedure: (§1) Gastrin-17 (GAST_HUMAN(77-92)[Pyr-77]amid) and MS Qual/Quant QC-Mix (Mat. No.: MSQC2, Sigma Aldrich, a peptide mix comprising peptides A, B and C as referred to herein) was solved in horse serum with a concentration of 2.0 mg/ml and diluted to 0.22 mg/mL.
(§2) This solution was spiked respectively to reach a final peptide concentration of 0.1 mg/ml in (a) horse serum with added 5% [v/v]H2O; (b) horse serum with added 5% [v/v] DMSO (CAS: 67-68-5); (c) horse serum with added 5% [v/v] Sulfolane (CAS: 126-33-0). The samples were stored at room temperature. Samples were taken at three times after spiking (0 h, 5 h and 23 h) and centrifuged with a Microcon-10 filter (Ultracel PL-10, Regenerated Cellulose 10,000 NMWL) for 10 min at 4 °C and 10,000 rpm. Afterwards the filtrate was separated by a liquid chromatography (HPLC) coupled with MS detector (QTOF Premier, Waters). The separation was done by a reverse phase liquid chromatography (Vydac 218TP C18, 5 μm, 2.1×150 mm, column temperature 50 °C) with a linear gradient to 100% of eluent B over 17 minutes. The eluent A was water with 0.025% [v/v]trifluoroacetic acid and eluent B was acetonitrile with 0.023% [v/v]trifluoroacetic acid. The quantification was done by using […]=1049.9 Da for Gastrin-17, [M+2H]^2+=671.8 Da for peptid A, [M+2H]^2+=751.4 Da for peptid B and [M+2H]^2+=802.9 Da for peptid C. Peptid A, B and C are exemplary peptides contained in the peptid-Mix MS Qual/Quant QC-Mix (Mat. No.: MSQC2, Sigma Aldrich). The peptide mix MS Qual/Quant QC-Mix (Mat. No.: MSQC2, Sigma Aldrich) contained peptides of a length of 4 to 26 amino acids.

[4] = tested on: peptides A, B and C; test: Concentration dependence of stabilization of peptides A, B and C in horse serum (Example 2); assay type: biochemical; details: for concentration dependence of stabilization, peptides A, B and C / stabilization of peptides A, B and C: 1.25%, 2.5% and 5% (v/v); for stabilization of peptides A, B and C: room temperature, 0 h and 5 h
Procedure: (§3) Gastrin-17 (GAST_HUMAN(77-92)[Pyr-77]amid) and MS Qual/Quant QC-Mix (Mat. No.: MSQC2, Sigma Aldrich; comprises peptides A, B and C) was solved in horse serum with a concentration of 2.0 mg/ml and diluted to 0.22 mg/mL.
(§4) This solution was spiked respectively to reach a concentration of 0.1 mg/ml in (a) horse serum with added 5% [v/v] DMSO (CAS: 67-68-5); (b) horse serum with added 5% [v/v] Sulfolane (CAS: 126-33-0); c) horse serum with added 2.5% [v/v] DMSO (CAS: 67-68-5); d) horse serum with added 2.5% [v/v] Sulfolane (CAS: 126-33-0); e) horse serum with added 1.25% [v/v] DMSO (CAS: 67-68-5); f) horse serum with added 1.25% [v/v] Sulfolane (CAS: 126-33-0); The samples were stored at room temperature. A sample was taken 0 h and 5 h after spiking. The further experiment was conducted as described in Example 1.

[5] = tested on: peptides A, B and C; test: Stability of peptides A, B and C in horse serum with 5% additive (Example 1, HPLC-MS); assay type: biochemical; details: for protection ability on different peptides (A, B, C): room temperature, 0 h, 5 h, 23 h
Procedure: as §1, §2

[6] = tested on: gastrin-17; test: Concentration dependence of gastrin-17 stabilization in horse serum (Example 2); assay type: biochemical, human gastrin-17 (GAST_HUMAN) in horse serum; details: for concentration dependence of stabilization, gastrin-17 / stabilization of gastrin-17: 1.25%, 2.5% and 5% (v/v); for stabilization of gastrin-17: room temperature, 0 h and 5 h
Procedure: as §3, §4

[7] = 5% [v/v], especially after longer incubation (23 h)

O=S1(=O)CCC(O)CC1 [tetrahydro-2H-thiopyran-4-ol 1,1-dioxide]
ability to stabilize gastrin-17 in serum [1]: have the ability to stabilize peptides
stabilizing effect on gastrin-17 compared with DMSO [1]: superior to the DMSO stabilizing effect
stability against oxidation compared with DMSO [2]: more stable against oxidation than DMSO

O=S1(=O)CCCN1 [1,1-dioxoisothiazolidine]
ability to stabilize gastrin-17 in serum [1]: have the ability to stabilize peptides
stability against oxidation compared with DMSO [2]: more stable against oxidation than DMSO

O=S1(=O)CCC1 [trimethylene sulfone]
ability to stabilize gastrin-17 in serum [1]: have the ability to stabilize peptides
stabilizing effect on gastrin-17 compared with DMSO [1]: superior to the DMSO stabilizing effect
stability against oxidation compared with DMSO [2]: more stable against oxidation than DMSO

O=S1(=O)CCCCO1 [1,4-butanesultone]
ability to stabilize gastrin-17 in serum [1]: have the ability to stabilize peptides
stabilizing effect on gastrin-17 compared with DMSO [1]: superior to the DMSO stabilizing effect
stability against oxidation compared with DMSO [2]: more stable against oxidation than DMSO

O=S1(=O)CCCC1 [Sulfolane]
protection of gastrin-17 compared with DMSO [3, 7]: exceeds the DMSO protection outcome
protection ability on gastrin-17 ([3]; 5% [v/v]): both exhibit protection ability
signal stability over time (MassSpec peak area), gastrin-17 ([3]; FIG. 1, 5% [v/v] vs no additive and 5% DMSO): better signal stability over time
concentration dependence of stabilization, peptides A, B and C ([4]; 5 h): stabilization increased with the concentration
stabilization of peptides A, B and C [4]: stabilized each of the peptides
overall stabilization compared with DMSO, peptides A, B and C ([4]; 1.25-5% (v/v), 5 h): overall better peptide stabilization ability
ability to stabilize gastrin-17 in serum [1]: have the ability to stabilize peptides
stabilizing effect on gastrin-17 compared with DMSO [1]: superior to the DMSO stabilizing effect
protection of gastrin peptide over a longer period compared with DMSO ([1]; ca. 24 h, similar concentrations like DMSO, serum derived degradation): can protect the Gastrin Peptide better over a longer period
protection of peptides A, B, C compared with DMSO [5, 7]: exceeds the DMSO protection outcome
protection ability on different peptides (A, B, C) ([5]; 5% [v/v]): both exhibit protection ability
signal stability over time (MassSpec peak area), peptides A, B and C ([5]; FIG. 2, 5% [v/v] vs no additive and 5% DMSO): better signal stability over time
concentration dependence of stabilization, gastrin-17 ([6]; 5 h): stabilization increased with the concentration
stabilization of gastrin-17 [6]: stabilized each of the peptides
overall stabilization compared with DMSO, gastrin-17 ([6]; 1.25-5% (v/v), 5 h): overall better peptide stabilization ability
stability improvement (MassSpec peak area) ([6]; FIG. 3, 5% vs 2.5% and 1.25% sulfolane or DMSO, legend says only "Peptide"): improves stability best
stability against oxidation compared with DMSO [2]: more stable against oxidation than DMSO
stability of Sulfolane compared with DMSO based upon oxidation ([2]; no experiment described at the place): more stable than DMSO based upon oxidation

CCS(C)(=O)=O [ethylmethylsulfone]
ability to stabilize gastrin-17 in serum [1]: have the ability to stabilize peptides
stabilizing effect on gastrin-17 compared with DMSO [1]: superior to the DMSO stabilizing effect
stability against oxidation compared with DMSO [2]: more stable against oxidation than DMSO

CC1CCCS1(=O)=O (stereo not drawn) [methyltetrahydrothiophene 1,1-dioxide, 2-methyltetrahydrothiophene 1,1-dioxide]
ability to stabilize gastrin-17 in serum [1]: have the ability to stabilize peptides
stabilizing effect on gastrin-17 compared with DMSO [1]: superior to the DMSO stabilizing effect
stability against oxidation compared with DMSO [2]: more stable against oxidation than DMSO

C[S+](C)[O-] [DMSO, dimethylsulfoxid, reference compound]
protection ability on gastrin-17 ([3]; 5% [v/v]): both exhibit protection ability
concentration dependence of stabilization, peptides A, B and C ([4]; 5 h): stabilization increased with the concentration
stabilization of peptides A, B and C [4]: stabilized each of the peptides
protection ability on different peptides (A, B, C) ([5]; 5% [v/v]): both exhibit protection ability
concentration dependence of stabilization, gastrin-17 ([6]; 5 h): stabilization increased with the concentration
stabilization of gastrin-17 [6]: stabilized each of the peptides
oxidation instability ([2]; background statement): rather instable
